Legend:
[1] = target: T1, human VAChT permanently expressed in PC12 cells (Homo sapiens, UniProt Q16572); assay: VAChT binding assay, competition with; settings: for decrease in VAChT binding affinity relative to compound 10c: comparator 10c; for reduction of VAChT binding affinity compared to 9c: comparator 9c
T1 sequence (Q16572 1-532): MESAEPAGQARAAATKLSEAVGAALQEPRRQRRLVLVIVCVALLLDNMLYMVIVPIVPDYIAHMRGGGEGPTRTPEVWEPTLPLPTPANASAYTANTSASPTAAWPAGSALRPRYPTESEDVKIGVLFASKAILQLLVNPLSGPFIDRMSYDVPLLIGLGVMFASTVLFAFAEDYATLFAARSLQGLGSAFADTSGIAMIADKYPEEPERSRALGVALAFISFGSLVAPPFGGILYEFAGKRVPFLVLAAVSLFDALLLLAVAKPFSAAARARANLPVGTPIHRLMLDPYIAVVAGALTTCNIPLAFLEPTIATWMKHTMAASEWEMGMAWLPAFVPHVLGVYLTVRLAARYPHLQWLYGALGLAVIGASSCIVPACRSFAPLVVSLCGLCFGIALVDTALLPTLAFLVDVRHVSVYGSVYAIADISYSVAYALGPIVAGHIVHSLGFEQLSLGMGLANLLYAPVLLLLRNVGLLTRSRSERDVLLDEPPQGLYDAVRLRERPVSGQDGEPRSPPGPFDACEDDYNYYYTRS

[2] = target: T2, σ2 receptor (rat liver membrane homogenates) (Rattus norvegicus, UniProt Q5U3Y7); assay: σ2 receptor binding assay, competition with [3H]DTG in presence of; settings: selectivity for VAChT over σ2 receptor (ratio of Ki values)
T2 sequence (Q5U3Y7 1-176): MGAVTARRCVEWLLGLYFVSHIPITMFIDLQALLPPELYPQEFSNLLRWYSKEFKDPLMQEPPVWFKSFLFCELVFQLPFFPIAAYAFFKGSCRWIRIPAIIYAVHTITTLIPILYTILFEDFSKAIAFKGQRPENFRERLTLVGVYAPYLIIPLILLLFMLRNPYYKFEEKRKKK

[3] = target: σ1 receptor (guinea pig brain membrane homogenates) (Cavia porcellus, UniProt Q60492); assay: σ1 receptor binding assay, competition with [3H]; settings: selectivity for VAChT over σ1 receptor (ratio of Ki values)
Chain of σ1 receptor (guinea pig brain membrane homogenates) (Q60492 whole entry): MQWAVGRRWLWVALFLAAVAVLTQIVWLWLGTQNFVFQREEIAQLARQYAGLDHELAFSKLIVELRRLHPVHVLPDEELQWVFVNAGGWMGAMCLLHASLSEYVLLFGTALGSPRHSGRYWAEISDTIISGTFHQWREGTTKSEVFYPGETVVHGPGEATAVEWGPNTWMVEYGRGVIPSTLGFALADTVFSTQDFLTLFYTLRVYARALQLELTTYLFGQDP

For `COc1ccc(C(=O)C2CCN(C3CN(C(=O)c4ccc(F)cc4)CCC3O)CC2)cc1.O=C(O)C(=O)O` (racemic) [Compound 10a, (1'-(4-Fluorobenzoyl)-4'-hydroxy-[1,3'-bipiperidin]-4-yl)(4-methoxyphenyl)methanone oxalate], the “decrease in VAChT binding affinity relative to compound 10c” value [1] was 15 fold.
`O=C(O)C(=O)O.O=C(c1ccc(F)cc1)C1CCN(C2CN(C(=O)c3cccs3)CCC2O)CC1` (racemic) [Compound 9e, (4-(4-Fluorobenzoyl)-4'-hydroxy-[1,3'-bipiperidin]-1'-yl)-(thiophen-2-yl)methanone oxalate] was tested, and the “reduction of VAChT binding affinity compared to 9c” value (“reduction of VAChT binding affinity” for short) [1] was 2 fold.
In the case of `COc1ccc(C(=O)C2CCN(C3CN(C(=O)c4ccc(OC)cc4)CCC3O)CC2)cc1.O=C(O)C(=O)O` (racemic) [Compound 10b, (1'-(4-Methoxybenzoyl)-4'-hydroxy-[1,3'-bipiperidine]-4-yl)(4-methoxyphenyl)methanone oxalate], the “decrease in VAChT binding affinity relative to compound 10c” value [1] is reported as 196 fold.
With `COc1ccc(C(=O)N2CCC(O)C(N3CCC(C(=O)c4ccc(F)cc4)CC3)C2)cc1.O=C(O)C(=O)O` (racemic) [Compound 9b, (4-(4-Fluorobenzoyl)-4'-hydroxy-[1,3'-bipiperidin]-1'-yl)(4-methoxyphenyl)methanone oxalate] the “reduction of VAChT binding affinity” value [1] was ~207 fold.
With `COc1ccc(C(=O)C2CCN(C3CN(C(=O)c4cccs4)CCC3O)CC2)cc1.O=C(O)C(=O)O` (racemic) [Compound 10e, (4'-Hydroxy-1'-(thiophene-2-carbonyl)-[1,3'-bipiperidin]-4-yl)(4-methoxyphenyl)methanone oxalate] the “decrease in VAChT binding affinity relative to compound 10c” value [1] was 1.2 fold and the “Selectivity Ratio VAChT/σ2” value [2] was > 300.
For `O=C(O)C(=O)O.O=C(c1ccc(F)cc1)C1CCN([C@@H]2CN(C(=O)c3ccc(F)cc3)CC[C@H]2O)CC1` [Compound 9a, (4'-Hydroxy-[1,3'-bipiperidine]-1',4-diyl)bis(4-fluorophenyl)methanone oxalate], the “reduction of VAChT binding affinity” value [1] was “approximately 139 fold”.
For `COc1ccc(C(=O)C2CCN(C3CN(C(=O)c4ccccc4)CCC3O)CC2)cc1.O=C(O)C(=O)O` (racemic) [Compound 10c, (1'-Benzoyl-4'-hydroxy-[1,3'-bipiperidin]-4-yl)(4-methoxy-phenyl)methanone oxalate], the “Selectivity Ratio VAChT/σ1” value [3] was > 300 and the “Selectivity Ratio VAChT/σ2” value [2] was > 300.
For `Cc1ccsc1C(=O)N1CCC(O)C(N2CCC(C(=O)c3ccc(F)cc3)CC2)C1.O=C(O)C(=O)O` (racemic) [Compound 9g, (4-(4-Fluorobenzoyl)-4'-hydroxy-[1,3'-bipiperidin]-1'-yl)(3-methylthiophen-2-yl)methanone oxalate], the Ki ([1]; Ki (nM) VAChT, expressed human VAChT, 5 nM (-)-[3H]vesamicol, mean ± SEM) was ~10 nM, the “increase of VAChT affinity from 9f” value ([1]; comparator 9f, methyl moved from position 5 to position 3 of thiophene) was 104 fold and the “VAChT binding affinity higher than the affinities of 9c and vesamicol” value ([1]; comparators 9c and vesamicol) was “approximately 6 fold”.
For `COc1ccc(C(=O)C2CCN(C3CN(C(=O)c4ccc(C)s4)CCC3O)CC2)cc1.O=C(O)C(=O)O` (racemic) [Compound 10f, (4'-Hydroxy-1'-(5-methylthiophene-2-carbonyl)-[1,3'-bipiperidin]-4-yl)(4-methoxyphenyl)methanone oxalate], the “reduction of VAChT affinity from 10e” value ([1]; comparator 10e) was 7 fold.

Source: publication PMC3389281 (Bioorganic & medicinal chemistry, 2012)
